The values below come from patent publication US12320799B2, “Methods of measuring signaling pathway activity for selection of therapeutic agents” (Celcuity Inc., priority 2017, dated 2025).

Type in all cases: cell-based, human
One experiment deals with FLT3 signaling pathway. The experiment in a line: CELx multiple pathway test, impedance biosensor cell adhesion, FL/Gilteritnib pair. The conditions noted are these: activator FL. The text has this: Biosensor and transducer: A 96-well impendence E-Plate (ACEA, San Diego, CA) was placed onto an xCELLigence RTCA MP Station impendence biosensor (ACEA, San Diego, CA). The biosensor measured simultaneously the impedance of every well. The change in impedance for a particular well is proportional to the number of cells and type of attachment the cells have with the impedance microplate. Changes in impedance indicate a response to perturbation of these small cell populations. Coatings: The 96-E-Plate were wells were coated with fibronectin and or collagen. Collagen is purchased from Advanced BioMatrix (Carlsbad, CA) and fibronectin from Sigma-Aldrich (St. Louis, MO). Tissue and cell samples: A total of 18 samples of human tumor cells from breast, lung, colon, ovarian, kidney, bladder cancer were studied. For each of these six different cancer types, tumor cell samples from three different patients were tested. Any biomarkers that are used to guide selection of targeted therapy are listed in Table 18 for each patient if they were present. Signaling Pathways activator agent and targeted therapeutic pairs: Eleven different signaling pathways were studied in each human tumor cell sample using […] signaling pathway activator agent and targeted therapeutic pairs. Each of the signaling pathway activator agent and targeted therapeutic pairs affect the same signaling pathway. Each of the signaling pathway activator agents is a well-characterized and specific agonist of its associated signaling pathway and each of the targeted therapeutic agents is a well-characterized and specific antagonist of the same associated signaling pathway. The signaling pathway activator agents and targeted therapeutics used to characterize the activity level of the associated signaling pathway are summarized in Table 16 below:
Other Reagents: Standard media antibiotics (e.g. penicillin, streptomycin) and other buffers were purchased and used as delivered from ATCC (Manassas, VA, USA) or Life Technologies (Grand Island, NY). Procedure: For each test of a patient cell sample with a pair of signaling pathway activator and targeted therapeutic agents, six wells were seeded with approximately 15,000 cells in 120 uL culture media. Twenty microliters of the targeted therapeutic agent were added to two wells of each patient's cells and 20 microliters of standard media were added to the other four wells for each patient 18 hours in advance of addition of the signaling pathway activator agent. Signaling pathway stimulation was initiated with the addition of 20 ul of the signaling pathway activator agent in the two wells that received a targeted therapeutic agent and in two additional wells for each patient's set of cells without the targeted therapeutic. The impedance recording of attachment and adhesion change was performed at 37° C., 5% C02. Data was recorded on a continuous basis throughout the test, where the data presented is from the initial baseline level of cell attachment compared to the subsequent effects following the targeted therapeutic agent and the signaling pathway activator agent additions on the 18 different patient samples.
For each of the 18 patient samples, up to 11 different signaling pathways were tested. The output value represents the difference between the amount of cell adhesion change resulting from addition of the signaling pathway activator agent and the amount of cell adhesion change resulting from addition of the targeted therapeutic agent.

In experiment [1] the test system is HER1, HER3 and c-Met pathways. The experiment in a line: CELx test of multiple pathways simultaneously (EGF, NRG1, HGF in combination), impedance biosensor. The source says:
Biosensor and transducer: A 96-well impendence E-Plate (ACEA, San Diego, CA) was placed onto an xCELLigence RTCA MP Station impendence biosensor (ACEA, San Diego, CA). The biosensor measured simultaneously the impedance of every well. The change in impedance for a particular well is proportional to the number of cells and type of attachment the cells have with the impedance microplate. Changes in impedance indicate a response to perturbation of these small cell populations. Coatings: The 96-E-Plate were wells were coated with fibronectin and or collagen. Collagen is purchased from Advanced BioMatrix (Carlsbad, CA) and fibronectin from Sigma-Aldrich (St. Louis, MO). Tissue and cell samples: Six samples of human tumor cells from breast cancer were studied (C1815, C1596, C1838, C135, C42, C264). Any biomarkers that are used to guide selection of targeted therapy are listed in Table 22 for each patient if they were present. Signaling Pathways activator agent and targeted therapeutic pairs: In each human tumor cell sample, gross signaling activity of the HER1, HER3 and c-Met pathways initiated by three activator agents (EGF, NRG1, HGF) in combination was quantified. […] Each of the signaling pathway activator agents is a well-characterized and specific agonist of its associated signaling pathway. […] The fifth targeted therapeutic tested, taselisib, is an inhibitor that binds to PI3k, which downstream of the HER family and c-Met receptors. Other Reagents: Standard media, antibiotics (e.g. penicillin, streptomycin), and other buffers were purchased and used as delivered from ATCC (Manassas, VA, USA) or Life Technologies (Grand Island, NY). Procedure:
For each test of a patient cell sample with a signaling pathway activator(s) and targeted therapeutic agent(s), six or eight wells were seeded with approximately 15,000 cells in 120 uL culture media; six wells were seeded when only a single drug was evaluated and eight wells were seeded when two drugs were evaluated. When only a single drug was evaluated, 20 uL of the targeted therapeutic agent was added to two wells of each patient's cells and the final concentration of the therapeutic agent in the two wells with the single therapeutic agent was 500 nanomolar. When two therapeutic agents were evaluated, two wells of patient cells received 20 uL of the combined therapeutic agents at a concentration of 500 nanomolar each and an additional two wells of patient cells received 20 uL of the combined therapeutic agents at a concentration of 50 nanomolar each. Twenty microliters of standard media were added to the other four wells for each patient 18 hours in advance of addition of the signaling pathway activator agent(s). Signaling pathway stimulation was initiated with the addition of 20 ul of the signaling pathway activator agent(s) in the two or four wells that received a targeted therapeutic agent(s) and two additional wells for each patient's set of cells. The impedance recording of attachment and adhesion change was performed at 37° C., 5% CO2. Data was recorded on a continuous basis throughout the test, where the data presented if from the initial baseline level of cell attachment compared to the subsequent effects following the targeted therapeutic agent(s) and the signaling pathway activator agent(s) additions on the nine different patient samples.
For each of the six patient samples, three different signaling pathways (HER1, HER3, c-Met) were activated simultaneously. The output value represents the difference between the amount of cell adhesion change resulting from addition of the signaling pathway activator agent(s) and the amount of cell adhesion change resulting from addition of the targeted therapeutic agent(s).

The subject of a further experiment is c-Met signaling. The experiment in a line: CELx ex vivo test of C21 sample agonized only by HGF. The conditions noted are these: C21 cell sample agonized only by HGF. The method, then: (§1) A HER2+ tumor cell sample, C21, was tested using essentially the same methods described in Examples 1 and 3 above to evaluate the status of the c-Met, EGFR, HER2 and HER3 pathways. […] Thus, this cell sample was suitable to assess whether cells found to be responsive to c-Met and EGFR inhibitors ex vivo in the CELx test would respond to these same inhibitors when another portion of the same cell sample was implanted in a xenograft mouse model.
(§2) This finding is not related to the receptor or gene amplification status of either receptor, nor observable when signaling activity is measured in isolation. This highlights the advantages of evaluating multiple signaling pathways simultaneously in live cells.

Experiment [2] deals with HER family signaling pathways and the c-Met signaling pathway. The experiment in a line: CELx ex vivo test of C21 sample simultaneously agonized with NRG1, EGF and HGF. Conditions: C21 cell sample simultaneously agonized with NRG1, EGF and HGF. The method, then:
as §1, §2

Take `CCc1nc(C(N)=O)c(Nc2ccc(N3CCC(N4CCN(C)CC4)CC3)c(OC)c2)nc1NC1CCOCC1` [Gilteritnib]: the output value in the experiment with FLT3 signaling pathway (C2 breast tumor cells) turned out to be 7; with FLT3 signaling pathway (C21 breast tumor cells) it was 9; with FLT3 signaling pathway (C34 breast tumor cells), 10; with FLT3 signaling pathway (C54 ovarian tumor cells) it was 10; with FLT3 signaling pathway (C77 ovarian tumor cells), 6.
`Cc1nc(-c2cn3c(n2)-c2ccc(-c4cnn(C(C)(C)C(N)=O)c4)cc2OCC3)n(C(C)C)n1` [taselisib]: the “Output value (cell adhesion change, activator agents minus targeted therapeutic agent(s))” value stood at 246 in experiment [1] (breast cancer patient sample C42, agent(s) 500 nM each); 583 in experiment [1] (breast cancer patient sample C135, agent(s) 500 nM each); 276 in experiment [1] (breast cancer patient sample C264, agent(s) 500 nM each); 242 in experiment [1] (breast cancer patient sample C1596, agent(s) 500 nM each); 385 in experiment [1] (breast cancer patient sample C1815, agent(s) 500 nM each); 271 in experiment [1] (breast cancer patient sample C1838, agent(s) 500 nM each).
Take `CN1CCC(COc2cnc(-c3cccc(Cn4nc(-c5cccc(C#N)c5)ccc4=O)c3)nc2)CC1` [tepotinib]: the “percentage of c-Met signaling activity inhibited” value in the experiment with c-Met signaling is about 100%. Also, in experiment [2], the total signaling inhibited entry was “less than 10%”.
